test system: Chlorella cells; assay: Test of reproductive ability using chlorella cells; assay type: cell-based; details: number of chlorella cells after 10 days, relative value, no-treated LS medium = 100; start 1.00x10^5 cells per ml
Experimental: <Test of Reproductive Ability Using Chlorella Cells> Chlorella cells, which are green cells of […], were cultured with vibration in an inorganic-salt medium. Raw materials shown in Table 4 were added thereto, and then reproductive ability of chlorella cells (ability for increasing the number of the cells) was evaluated by comparison with the result obtained from a medium which was no-treated (i.e., only original nutrients of the inorganic salt medium). For the respective compositions, the test was repeated 3 times. The concentration of the cells was set to 1.00×10^5 cells (per ml) at the start of the test. […] As the inorganic salt medium, a Linsmaier-Skoog (LS) medium was used.

SMILES | proliferating ability of cells
CCCO [Comparative product 4-1, Propanol, reference compound] | 96
CCCCCCO [Comparative product 4-2, Hexanol, reference compound] | 93
CCCCCCCCCCO [Comparative product 4-4, Decyl alcohol, reference compound] | 91
CCCCCCCCO [Comparative product 4-7, Octanol, reference compound] | 95
CCCCCCCCCCCCO [Invention product 4-1, Lauryl alcohol] | 115
CCCCCCCCCCCCCCO [Invention product 4-2, Myristyl alcohol] | 128
CCCCCCCCCCCCCCCCO [Invention product 4-4, Cetyl alcohol] | 148
CCCCCCCCCCCCCCCCCCO [Invention product 4-6, Stearyl alcohol] | 168
CCCCCCCC/C=C\CCCCCCCCO [Invention product 4-7, Oleyl alcohol] | 154
CCCCCCCCCCCCCCCCCCCCO [Invention product 4-8, Eicosanol] | 152
CCCCCCCCCCCCCCCCCCCCCCO [Invention product 4-9, Docosanol] | 130
CCCCCCCCCCCCCCCCCCCCCCCCO [Invention product 4-10, Tetracosanol] | 122
CCCCCCCCCCCCCCCCO [Invention product 4-15, Cetyl alcohol] | 142
CCCCCCCCCCCCCCCCCCO [Invention product 4-16, Stearyl alcohol] | 156
CCCCCCCCCCCCCCCCCCCCO [Invention product 4-17, Eicosanol] | 146
